Reference: US20200121677A1, “SUBSTITUTED 6,7-DIHYDROPYRAZOLO[1,5-a]PYRAZINES AS NEGATIVE ALLOSTERIC MODULATORS OF MGLUR2 RECEPTORS” (Janssen Pharmaceutica NV, priority 2014, published 2020)
Read-outs that look alike come from different tables or passages of the source.

Legend:
rats = assay: Reversal of the effect of the mGluR2 PAM JNJ-42153605-induced inhibition of scopolamine-induced hyperlocomotion; assay type: in vivo, rat; settings: for ED50 SCOP JNJ-42153605 (Reversal of the effect of JNJ 42153605 on scopolamine-induced hyperlocomotion) / ED50: rats, route PO, criterion total distance >1500 cm; for ED50: Rattus norvegicus, read-out: ED50 SCOP JNJ-42153605 (Reversal of the effect of JNJ 42153605 on scopolamine-induced hyperlocomotion)
Protocol: 2) Reversal of the Effect of the mGluR2 PAM JNJ-42153605-Induced Inhibition of Scopolamine-Induced Hyperlocomotion
Motor activity was measured in microprocessor-based motor activity arenas (closed gray PVC cylinders with a height of 39 cm and a diameter of 31 cm). Each arena was placed on an infrared LED (8×8 LEDs) lit box (white PVC squared box; 40×40 cm^2; height 12.5 cm. An infrared-sensitive tube camera and a white light source were mounted to the ceiling above the observation chamber to track the animal. The total distance traveled (cm) was recorded and analyzed using the Noldus Ethovision XT Video Tracking System (Version 7.0.418; Noldus, Wageningen, The Netherlands). The intensity of the light within the activity cages (measured in the centre at the level of the floor) ranged between 4 and 8 LUX.
The rats were pretreated with test compound or vehicle at 60 min before the start of the activity recordings and placed into individual cages. The rats were challenged with JNJ-42153605 (3-(cyclopropylmethyl)-7-(4-phenylpiperidin-1-yl)-8-(trifluoromethyl)[1,2,4]triazolo[4,3-a]pyridine; WO2010/130424; Cid et al. J. Med. Chem. 2012, 55, 8770-8789) (20 mg/kg, i.v.) 30 min before the start of the activity recording combined with scopolamine (0.16 mg/kg, i.v.) just before the start of the activity measurements. Immediately after the injection of scopolamine, the rats were placed into the activity monitors and total distance traveled over the first 30 min was measured.
For reversal of the inhibitory effect of JNJ-42153605 on the scopolamine-induced hyperlocomotion, the following all-or-none criteria were adopted: (1) reversal: total distance >1500 cm.

human mGlu2 receptor = human mGlu2 receptor (Homo sapiens, UniProt Q14416); assay: [35S]GTPγS binding assay, mGluR2 negative allosteric modulation (membranes from CHO cells transfected with human mGlu2 receptor, glutamate ~EC80 60 μM); settings: for GTPγS - hmGluR2 anGT pIC50: membranes with human mGlu2 receptor; for GTPγS - hmGluR2 anGT pIC50 / IC50: glutamate ~EC80 (60 μM), pIC50 = -log IC50 (M); for GTPγS - hmGluR2 anGT Emax: relative maximal effect: maximal % inhibition relative to the control glutamate response; for IC50: GTPγS - hmGluR2 anGT pIC50, membranes with human mGlu2 receptor;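 as to all read-outs here: membranes preincubated 30 min at 30 °C with compound plus glutamate, then [35S]GTPγS (0.1 nM) incorporation measured over another 30 min at 30 °C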
Protocol: The [^35S]GTPγS binding assay is a functional membrane-based assay used to study G-protein coupled receptor (GPCR) function whereby incorporation of a non-hydrolysable form of GTP, [^35S]GTPγS (guanosine 5′-triphosphate, labelled with gamma-emitting ^35S), is measured. […] Here we describe the use of the [^35S]GTPγS binding assay using membranes from cells transfected with the human mGlu2 receptor and adapted from Schaffhauser et al. (Molecular Pharmacology, 2003, 4:798-810) for the detection of the negative allosteric modulation (NAM) properties of the compounds of this invention.
CHO-cells were cultured to pre-confluence and stimulated with 5 mM butyrate for 24 h. Cells were then collected by scraping in PBS and cell suspension was centrifuged (10 min at 4000 RPM in benchtop centrifuge). Supernatant was discarded and pellet gently resuspended in 50 mM Tris-HCl, pH 7.4 by mixing with an Ultra Turrax homogenizer. The suspension was centrifuged at 12,400 RPM (Sorvall F14S-6x250Y) for 10 minutes and the supernatant discarded. The pellet was homogenized in 5 mM Tris-HCl, pH 7.4 using an Ultra Turrax homogenizer and centrifuged again (13,000 RPM, 20 min, 4° C.). The final pellet was resuspended in 50 mM Tris-HCl, pH 7.4 and stored at −80° C. in appropriate aliquots before use. Protein concentration was determined by the Bradford method (Bio-Rad, USA) with bovine serum albumin as standard.
Measurement of mGluR2 negative allosteric modulatory activity of test compounds was performed as follows. Test compounds and glutamate were diluted in assay buffer containing 10 mM HEPES acid, 10 mM HEPES salt, pH 7.4, 100 mM NaCl, 3 mM MgCl2 and 10 μM GDP. Human mGlu2 receptor-containing membranes were thawed on ice and diluted in assay buffer supplemented with 18 μg/ml saponin. Membranes were pre-incubated with compound together with a predefined (˜EC80) concentration of glutamate (60 μM) for 30 min at 30° C. After addition of [^35S]GTPγS (f.c. 0.1 nM), assay mixtures were shaken briefly and further incubated to allow [^35S]GTPγS incorporation on activation (30 minutes, 30° C.). Final assay mixtures contained 7 μg of membrane protein in 10 mM HEPES acid, 10 mM HEPES salt, pH 7.4, 100 mM NaCl, 3 mM MgCl2, 10 μM GDP and 10 μg/ml saponin. Total reaction volume was 200 μl. Reactions were terminated by rapid filtration through Unifilter-96 GF/B plates (Perkin Elmer, Massachusetts, USA) using a 96-well filtermate universal harvester. Filters were washed 6 times with ice-cold 10 mM NaH2PO4/10 mM Na2HPO4, pH 7.4. Filters were then air-dried, and 30 μl of liquid scintillation cocktail (Microscint-O) was added to each well. Membrane-bound radioactivity was counted in a Topcount.
Data were calculated as % of the control glutamate response, defined as the response that is generated upon addition of an EC80-equivalent concentration of glutamate.

[1] = historical solvent-pretreated control rats, first 30 min, JNJ-42153605 20 mg/kg i.v., scopolamine 0.16 mg/kg i.v.
[2] = read-out: GTPγS - hmGluR2 anGT Emax, relative maximal effect: maximal % inhibition relative to the control glutamate response

Sequence of human mGlu2 receptor (Q14416 19-872): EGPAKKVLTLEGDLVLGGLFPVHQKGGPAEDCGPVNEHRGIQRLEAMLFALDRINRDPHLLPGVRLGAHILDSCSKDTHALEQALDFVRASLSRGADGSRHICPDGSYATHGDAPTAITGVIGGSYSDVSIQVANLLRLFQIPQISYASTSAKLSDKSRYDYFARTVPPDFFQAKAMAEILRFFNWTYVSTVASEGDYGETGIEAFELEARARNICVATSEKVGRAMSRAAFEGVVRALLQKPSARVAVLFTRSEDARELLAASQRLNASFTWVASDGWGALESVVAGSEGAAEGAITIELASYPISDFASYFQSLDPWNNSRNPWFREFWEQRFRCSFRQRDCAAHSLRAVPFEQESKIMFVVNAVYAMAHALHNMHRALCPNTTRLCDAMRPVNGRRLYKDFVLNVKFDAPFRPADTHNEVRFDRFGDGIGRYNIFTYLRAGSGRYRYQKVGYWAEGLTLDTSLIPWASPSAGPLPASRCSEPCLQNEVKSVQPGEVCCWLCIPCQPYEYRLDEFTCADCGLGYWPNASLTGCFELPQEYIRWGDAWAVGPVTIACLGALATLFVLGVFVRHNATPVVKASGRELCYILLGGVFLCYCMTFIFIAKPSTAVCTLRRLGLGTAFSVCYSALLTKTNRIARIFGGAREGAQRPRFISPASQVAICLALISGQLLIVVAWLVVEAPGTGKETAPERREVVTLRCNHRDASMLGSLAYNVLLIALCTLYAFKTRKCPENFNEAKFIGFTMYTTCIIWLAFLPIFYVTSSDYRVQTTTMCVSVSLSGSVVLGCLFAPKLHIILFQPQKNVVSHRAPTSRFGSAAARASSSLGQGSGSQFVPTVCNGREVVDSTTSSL

Row | SMILES | IC50 (human mGlu2 receptor) [M] | Emax (human mGlu2 receptor; [2]) [%] | melting point [°C] | further results
1 | COCC1CN(c2ccc(C(F)(F)F)cc2)C(=O)c2c(C(=O)Nc3cnccn3)cnn21 (single isomer, unassigned) [compound 154] |  |  |  | ED50 SCOP JNJ-42153605 (Reversal of the effect of JNJ 42153605 on scopolamine-induced hyperlocomotion) (rats): 0.63 mg/kg; GTPγS - hmGluR2 anGT pIC50 (human mGlu2 receptor): 8.31; GTPγS - hmGluR2 anGT Emax (human mGlu2 receptor): 113%
2 | COCC1CN(c2ccc(C(F)(F)F)c(Cl)c2)C(=O)c2c(C(=O)Nc3cccnc3)cnn21 (single isomer, unassigned) [compound 156] |  |  |  | ED50 SCOP JNJ-42153605 (Reversal of the effect of JNJ 42153605 on scopolamine-induced hyperlocomotion) (rats): 0.20 mg/kg; GTPγS - hmGluR2 anGT pIC50 (human mGlu2 receptor): 8.77; GTPγS - hmGluR2 anGT Emax (human mGlu2 receptor): 107%
3 | COCC1CN(c2ccc(C(F)(F)F)cc2)C(=O)c2c(C(=O)Nc3cccnc3)cnn21 (single isomer, unassigned) [compound 158] |  |  |  | ED50 SCOP JNJ-42153605 (Reversal of the effect of JNJ 42153605 on scopolamine-induced hyperlocomotion) (rats): >0.63 mg/kg; GTPγS - hmGluR2 anGT pIC50 (human mGlu2 receptor): 8.48; GTPγS - hmGluR2 anGT Emax (human mGlu2 receptor): 108%
4 | CN1[C@@H]2C[C@@H](OC(=O)[C@H](CO)c3ccccc3)C[C@H]1[C@@H]1O[C@@H]12 [Scopolamine, scopolamine] |  |  |  | Total distance traveled >1500 cm (%) (rats; [1]): 100%; Total distance traveled >4400 cm (%) (rats; [1]): 95.8%; Total distance traveled, Median (cm) (rats; [1]): 7246 cm
5 | C[C@H]1CN(c2ccc(C(F)(F)F)cc2)C(=O)c2c(C(=O)Nc3ccncc3)cnn21 [compound 3] | 2.09e-09 | 116 | 160.2 | ED50 (rats): 0.08 mg/kg
6 | C[C@H]1CN(c2ccc(C(F)(F)F)cc2)C(=O)c2c(C(=O)Nc3ccncc3F)cnn21 [compound 4] | 3.02e-09 | 117 | 189 | ED50 (rats): 1.01 mg/kg
7 | C[C@H]1CN(c2ccc(C(F)(F)F)cc2)C(=O)c2c(C(=O)Nc3ccc(F)cc3)cnn21 [compound 7] | 4.68e-09 | 103 | 185.3 | ED50 (rats): > 2.5 mg/kg
8 | Cc1cncc(NC(=O)c2cnn3c2C(=O)N(c2ccc(Cl)c(Cl)c2)C[C@@H]3C)c1 [compound 28] |  |  |  | ED50 SCOP JNJ-42153605 (Reversal of the effect of JNJ 42153605 on scopolamine-induced hyperlocomotion) (rats): >0.63 mg/kg; GTPγS - hmGluR2 anGT pIC50 (human mGlu2 receptor): 9.06; GTPγS - hmGluR2 anGT Emax (human mGlu2 receptor): 107%
9 | COc1cncc(NC(=O)c2cnn3c2C(=O)N(c2ccc(Cl)c(Cl)c2)C[C@@H]3C)c1 [compound 29] |  |  |  | ED50 SCOP JNJ-42153605 (Reversal of the effect of JNJ 42153605 on scopolamine-induced hyperlocomotion) (rats): >0.63 mg/kg; GTPγS - hmGluR2 anGT pIC50 (human mGlu2 receptor): 8.75; GTPγS - hmGluR2 anGT Emax (human mGlu2 receptor): 107%
10 | COCc1cc(N2C[C@H](C)n3ncc(C(=O)Nc4ccnc(C)c4)c3C2=O)ccc1C(F)(F)F [compound 95] | 5.5e-09 | 112 |  | ED50 (rats): > 2.5 mg/kg
11 | COc1cccc(NC(=O)c2cnn3c2C(=O)N(c2ccc(C(F)(F)F)cc2)C[C@@H]3C)n1 [compound 105] |  |  |  | ED50 SCOP JNJ-42153605 (Reversal of the effect of JNJ 42153605 on scopolamine-induced hyperlocomotion) (rats): >2.5 mg/kg; GTPγS - hmGluR2 anGT pIC50 (human mGlu2 receptor): 8.21; GTPγS - hmGluR2 anGT Emax (human mGlu2 receptor): 108%
12 | C[C@H]1CN(c2ccc(C(F)(F)F)c(Cl)c2)C(=O)c2c(C(=O)Nc3cnccn3)cnn21 [compound 106] | 1.15e-09 | 111 |  | ED50 (rats): 0.32 mg/kg
13 | Cc1cc(N2C[C@H](C)n3ncc(C(=O)Nc4ccc(F)cn4)c3C2=O)ccc1C(F)(F)F [compound 110] |  |  |  | ED50 SCOP JNJ-42153605 (Reversal of the effect of JNJ 42153605 on scopolamine-induced hyperlocomotion) (rats): >0.63 mg/kg; GTPγS - hmGluR2 anGT pIC50 (human mGlu2 receptor): 8.3; GTPγS - hmGluR2 anGT Emax (human mGlu2 receptor): 107%
14 | Cc1cc(N2C[C@H](C)n3ncc(C(=O)Nc4cnccn4)c3C2=O)ccc1C(F)(F)F [compound 112] | 1.12e-09 | 106 |  | ED50 (rats): 0.2 mg/kg
15 | COc1cccc(NC(=O)c2cnn3c2C(=O)N(c2ccc(C(F)(F)F)c(OC)n2)C[C@@H]3C)c1 [compound 119, (7S)—N-(3-Methoxyphenyl)-5-[6-methoxy-5-(trifluoromethyl)-2-pyridyl]-7-methyl-4-oxo-6,7-dihydropyrazolo[1,5-a]pyrazine-3-carboxamide] | 7.76e-09 | 111 | 194.51 | 
16 | COc1ccc(NC(=O)c2cnn3c2C(=O)N(c2ccc(C(F)(F)F)c(OC)n2)C[C@@H]3C)cc1 [compound 121] | 9.77e-09 | 109 | 212.39 | 
17 | COc1ccccc1NC(=O)c1cnn2c1C(=O)N(c1ccc(C(F)(F)F)c(OC)n1)C[C@@H]2C [compound 122] | 2.14e-08 | 113 | 192.95 | 

Row | SMILES | IC50 (human mGlu2 receptor) [M] | Emax (human mGlu2 receptor; [2]) [%] | melting point [°C] | further results
18 | Cc1cc(N2C[C@H](C)n3ncc(C(=O)Nc4cncc(F)c4C)c3C2=O)ccc1C(F)(F)F [compound 125] | 2.34e-09 | 110 | 156.83 | 
19 | Cc1cc(NC(=O)c2cnn3c2C(=O)N(c2ccc(C(F)(F)F)c(Cl)c2)C[C@@H]3C)on1 [compound 128] | 2.88e-09 | 106 | 213.44 | 
20 | Cc1c(F)cncc1NC(=O)c1cnn2c1C(=O)N(c1ccc(Cl)cc1)C[C@@H]2C [compound 129] | 6.17e-09 | 110 | 189.99 | 
21 | Cc1c(F)cncc1NC(=O)c1cnn2c1C(=O)N(c1ccc(Cl)c(Cl)c1)C[C@@H]2C [compound 130] | 8.51e-10 | 110 | 211.11 | 
22 | Cc1c(F)cncc1NC(=O)c1cnn2c1C(=O)N(c1ccc(C(F)(F)F)c(F)c1)C[C@@H]2C [compound 131] | 2.95e-09 | 110 | 186.35 | 
23 | C[C@H]1CN(c2ccc(C(F)(F)F)cc2)C(=O)c2c(C(=O)NCc3ccc(N)nc3)cnn21 [compound 136, (7S)—N-[(6-Amino-3-pyridyl)methyl]-7-methyl-4-oxo-5-[4-(trifluoromethyl)phenyl]-6,7-dihydropyrazolo[1,5-a]pyrazine-3-carboxamide] | 1.55e-06 | 104 | 104.2 | 
24 | C[C@H]1CN(c2ccc(C(F)(F)F)cc2)C(=O)c2c(C(=O)NC(=O)C3CCC3)cnn21 [compound 137, (7S)—N-(cyclobutanecarbonyl)-7-methyl-4-oxo-5-[4-(trifluoromethyl)phenyl]-6,7-dihydropyrazolo[1,5-a]pyrazine-3-carboxamide] | 4.07e-08 | 107 | 237.74 | 
25 | CC(=O)NC(=O)c1cnn2c1C(=O)N(c1ccc(C(F)(F)F)cc1)C[C@@H]2C [compound 138] | 1.66e-07 | 114 | 212.65 | 
26 | C[C@H]1CN(c2ccc(C(F)(F)F)cc2)C(=O)c2c(C(=O)Nc3ncco3)cnn21 [compound 139] | 2.57e-08 | 109 | 204.9 | 
27 | C[C@H]1CN(c2ccc(C(F)(F)F)cc2)C(=O)c2c(C(=O)Nc3ncc[nH]3)cnn21 [compound 142] | 2.14e-07 | 110 | 257.9 | 
28 | COc1cc(N2C[C@H](C)n3ncc(C(=O)Nc4cc(C)nc(C)c4)c3C2=O)ccc1C(F)(F)F [compound 143] | 8.13e-09 | 116 | 201.6 | 
29 | C[C@H]1CN(c2ccc(C(F)(F)F)cc2)C(=O)c2c(C(=O)Nc3cncc(F)n3)cnn21 [compound 145] | 1.23e-09 | 126 | 209.5 | 
30 | C[C@H]1CN(c2ccc(Cl)c(Cl)c2)C(=O)c2c(C(=O)Nc3cncc(F)n3)cnn21 [compound 146] | 9.55e-10 | 128 | 172.9 | 
31 | C[C@H]1CN(c2ccc(C(F)(F)F)cc2)C(=O)c2c(C(=O)Nc3cncc(CO)c3)cnn21 [compound 148, (7S)—N-[5-(hydroxymethyl)pyridin-3-yl]-7-methyl-4-oxo-5-[4-(trifluoromethyl)phenyl]-4,5,6,7-tetrahydropyrazolo[1,5-a]pyrazine-3-carboxamide] | 1.86e-08 | 105 | 150.83 | 
32 | C[C@H]1CN(c2ccc(C(F)(F)F)cc2)C(=O)c2c(C(=O)Nc3ccnc(CO)c3)cnn21 [compound 150] | 8.13e-09 | 107 | 169.28 | 
33 | O=C(Nc1cccnc1)c1cnn2c1C(=O)N(c1ccc(C(F)(F)F)cc1)CC2 [compound 153] | 1.23e-07 | 111 | 229.9 | 
34 | C[C@H]1CN(c2ccc(C(F)(F)F)cc2)C(=O)c2c(C(=O)Nc3ccc(S(=O)(=O)F)cc3)cnn21 [compound 167] | 4.27e-08 |  | 205.04 | Emax (human mGlu2 receptor; read-out: GTPγS - hmGluR2 anGT Emax): 107%
